# “Also recorded” adds a separate entry of the source.
# Test system: MDA
# Assay: MDA-HOBA (propenal-HOBA) adducts in urine and tissues after oral gavage (LC-MS/MS)
# Format: in vivo, mouse
# Protocol: Urine samples were collected for 16 h after oral gavage of male Ldlr^−/− mice on a WD with either 2-HOBA or 4-HOBA. After 16 h, the Ldlr^−/− mice were sacrificed and the HOBA-propenal adducts in urine (14A), liver (14B), kidney (14C) and spleen (14D) were measured using LC-MS/MS as described in methods (14A-D) (Mann-Whitney test, ** indicates p<0.01 and *** indicates p<0.001).
# Ldlr^−/− and WT on C57BL/6 background mice were obtained from the Jackson Laboratory. Animal protocols were performed according to the regulations of Vanderbilt University's Institutional Animal Care and Usage Committee. Mice were maintained on chow or a Western-type diet containing 21% milk fat and 0.15% cholesterol (Teklad). Eight week old, female Ldlr^−/− mice on a chow diet were pretreated with vehicle alone (Water) or containing either 1 g/L of 4-HOBA or 1 g/L of 2-HOBA. 4-HOBA (as hydrochloride salt) was synthesized as previously described^21. 2-HOBA (as the acetate salt, CAS 1206675-01-5) was manufactured by TSI Co., Ltd. (Missoula, MT) and obtained from Metabolic Technologies, Inc., Ames, IA^24. A commercial production lot was used (Lot 16120312), and the purity of the commercial lot was verified to be >99% via HPLC and NMR spectroscopy^24. After two weeks, the mice continued to receive these treatments but were switched to a western diet for 16 weeks to induce hypercholesterolemia and atherosclerosis. Similarly, 12 week-old male Ldlr^−/− mice were pretreated with vehicle alone (water) or containing 1 g/L of 2-HOBA for two weeks and were then switched to a western diet for 16 weeks to induce hypercholesterolemia and atherosclerosis, while continuing the treatment with 2-HOBA or water alone^58, 59, 60 Based on the average weight and daily consumption of water per mouse the estimated daily dosage with 1 g/L of 2-HOBA is 200 mg/Kg. […] Eight week old, male Ldlr^−/− mice were fed a western diet for 16 weeks and were continuously treated with water containing either 2-HOBA or 4-HOBA. Urine samples were collected using metabolic cages (2 mice in one cage) during 18 h after oral gavage with either 2-HOBA or 4-HOBA (5 mg each mouse).
# The scavenger-MDA adducts were extracted, (1) from homogenate of tissue (equivalent of 30 mg) or (2) from cells (1 ml), three times with 500 μl of ethyl acetate. The extract was dried down, resuspended in 100 μl of ACN-water (1:1, v/v with 0.1% formic acid), vortexed, and filtered through a 0.22 μm spin X column. The reactions were analyzed by LC-EST/MS/MS using the column a Phenomenex Kinetex column at a flow rate of 0.1 ml/min. The gradient consisted of Solvent A, water with 0.2% formic acid and solvent B, acetonitrile with 0.2% formic acid. The gradient was as follows: 0-2 min 99.9% A, 2-9 min 99.9-0.1% A, 9-12 min 99.9% B. The mass spectrometer was operated in the positive ion mode, and the spray voltage was maintained at 5,000 V. Nitrogen was used for the sheath gas and auxiliary gas at pressures of 30 and 5 arbitrary units, respectively. The optimized skimmer offset was set at 10, capillary temperature was 300° C., and the tube lens voltage was specific for each compound. SRM of specific transition ions for the precursor ions at m/z 178→107 (propenal-HOBA adduct).
# [1] = 16 h post oral gavage, Ldlr−/− mice
smiles,measurement,setting,value
"NCc1ccccc1O [2-HOBA, 2-hydroxybenzylamine]","propenal-HOBA adducts in kidney, 2-HOBA versus 4-HOBA",[1],5 fold
same,"propenal-HOBA adducts in liver, 2-HOBA versus 4-HOBA",[1],3 fold
same,"propenal-HOBA adducts in spleen, 2-HOBA versus 4-HOBA",[1],11 fold
same,formation of MDA-HOBA adducts in vivo,"Ldlr−/− mice on WD, oral gavage",abundantly formed; also recorded: more readily formed
same,MDA-2-HOBA versus MDA-4-HOBA (propenal-HOBA) adducts in urine,"urine collected during 16 h after oral gavage (5 mg), Ldlr−/− mice on western diet 16 weeks",19 fold

# Source: US20230364032A1, “USE OF 2-HOBA TO TREAT ATHEROSCLEROSIS” (Vanderbilt University, priority 2020, published 2023)
